The values below come from patent publication US10975082B2, “Inhibitor of FLT3 kinase and use thereof” (PRECEDO PHARMACEUTICALS CO., LTD, priority 2016, dated 2021).

Holding throughout (assay type): cell-based
In assay [1] the test system is U937. The assay is described as follows: Cancer cell proliferation, Cell Titer-Glo, GI50. To be noted: Homo sapiens, U-937; U937, 72 hours. As for the experimental part:
(§1) Compounds of the invention were evaluated for their inhibitory effects on proliferation of cancer cells as well as the selectivity thereof by testing their effects on growth of cancer cells (Table 2).
(§2) In this example the following cells were selected: human acute myeloid leukemia cells MV-4-11 (expressing FLT3[ITD] mutant gene), human acute myeloid leukemia cells MOLM-13 (expressing FLT3[ITD] mutant gene and wild-type FLT3 gene), human acute myeloid leukemia cells MOLM-14 (expressing FLT3[ITD] mutant gene and wild-type FLT3 gene), human acute myeloid leukemia cells OCI-AML3 (expressing FLT3[A680V] mutant gene), human acute myeloid leukemia cells U937 (expressing wild-type FLT3 gene), and mouse pro-B cells BaF3, and the above cells were purchased from ATCC.
(§3) Then the number of viable cells was determined by quantification of ATP in living cells using Cell Titer-Glo® (Promega, the USA) Luminescent Cell Viability Assay kit and thereby GI50 was calculated.

Assay [2] relates to MV-4-11. In words: Cancer cell proliferation, Cell Titer-Glo, GI50. To be noted: Homo sapiens, MV4-11; MV-4-11, 72 hours. As for the experimental part: as §1, §2, §3
Background: In ATP-based viability assays light output follows the ATP content of the culture.

In assay [3] the test system is MOLM-14. In words: Cancer cell proliferation, Cell Titer-Glo, GI50. The following applies: Homo sapiens; MOLM-14, 72 hours. As for the experimental part: as §1, §2, §3
Assay [4] relates to BaF3. The assay is described as follows: Cell proliferation, Cell Titer-Glo, GI50. The following applies: Mus musculus; BaF3, 72 hours. The method, then:
as §1, §2, §3

For assay [5], the system named is BaF3-TEL-cKit [D816V]. The assay is described as follows: Cell proliferation, Cell Titer-Glo, GI50. The following applies: Mus musculus, 72 hours. The method, then:
as §1
(§4) Mouse BaF3-FLT3[ITD] (stably expressing FLT3[ITD] mutant activated kinase), mouse tel-BaF3-FLT3-D835Y (stably expressing FLT3[D835Y]mutant activated kinase), mouse tel-BaF3-BMX (stably expressing BMX kinase), mouse tel-FLT3-BaF3 (stably expressing FLT3 kinase), mouse BaF3-FLT3-ITD-D835Y (stably expressing FLT3[ITD+D835Y]mutant activated kinase), mouse BaF3-FLT3-ITD-F691L (stably expressing FLT3[ITD+F691L]mutant activated kinase), mouse tel-cKIT-BaF3 (stably expressing cKIT kinase), mouse BaF3-tel-cKit-N882K (stably expressing cKIT-N882K mutant activated kinase), mouse BaF3-tel-cKit-D816V (stably expressing cKIT-D816V mutant activated kinase), mouse BaF3-tel-cKit-T670I (stably expressing cKIT-T670I mutant activated kinase), mouse TPR-MET-BaF3 (stably expressing MET kinase), mouse tel-BaF3-EGFR (stably expressing EGFR kinase), mouse BaF3-FL-EGFR-L858R (stably expressing EGFR[L858R]mutant activated kinase), mouse tel-BaF3-BLK (stably expressing BLK kinase), mouse tel-JAK1-BaF3 (stably expressing JAK1 kinase) and the like were also used (see Table 2 for details). The above cell lines were all constructed by our laboratory according to the following method: the kinase region sequences of human FLT3/ITD, FLT3 D835Y, BMX, FLT3, FLT3[ITD+D835Y], FLT3[ITD+F691L], cKIT, cKIT [N882K], cKIT [D816V], cKIT [T670I], MET, EGFR, EGFR [L858R], BLK, JAK1, FLT3[K663Q], FLT3[D835V], FLT3[D835H], PDGFRa, PEGFRb, VEGFR2, JAK2, JAK3, ABL were amplified by PCR, and inserted into MSCV-Puro vectors with N-terminal TEL or TPR fragments (purchased from Clontech), respectively. The vectors were stably transfected into mouse BaF3 cells (purchased from ATCC) by means of retrovirus, and the growth factor IL-3 were removed, eventually obtaining cell lines that are transferred protein (FLT3/ITD, FLT3 D835Y, BMX, FLT3, FLT3[ITD D835Y], FLT3[ITD+F691L], cKIT, cKIT [N882K], cKIT [D816V], cKIT [T670I], MET, EGFR, EGFR [L858R], BLK, JAK1, FLT3[K663Q], FLT3[D835V], FLT3[D835H], PDGFRa, PEGFRb, VEGFR2, JAK2, JAK3, ABL)-dependent.
as §3

In assay [6] the test system is BaF3-TEL-FLT3 [K663Q]. The assay is described as follows: Cell proliferation, Cell Titer-Glo, GI50. To be noted: Mus musculus, 72 hours. As for the experimental part: as §1, §4, §3
In assay [7] the test system is BaF3-TEL-FLT3 [D835Y]. In words: Cell proliferation, Cell Titer-Glo, GI50. To be noted: Mus musculus, 72 hours. As for the experimental part:
as §1, §4, §3

The subject of assay [8] is BaF3-FLT3 [ITD]. In words: Cell proliferation, Cell Titer-Glo, GI50. To be noted: Mus musculus, Ba/F3 FLT3-ITD, 72 hours. The method, then:
as §1, §4, §3

For assay [9], the system named is BaF3-FLT3 [ITD + D835Y]. In words: Cell proliferation, Cell Titer-Glo, GI50. The following applies: Mus musculus, Ba/F3 FLT3-ITD, 72 hours. As for the experimental part: as §1, §4, §3
The subject of assay [10] is BaF3-TEL-cKit [N882K]. In words: Cell proliferation, Cell Titer-Glo, GI50. To be noted: Mus musculus, 72 hours. The method, then:
as §1, §4, §3

For assay [11], the system named is BaF3-TEL-FLT3 [D835V]. In words: Cell proliferation, Cell Titer-Glo, GI50. The following applies: Mus musculus, 72 hours. The method, then: as §1, §4, §3
The subject of assay [12] is BaF3-TEL-FLT3. The assay is described as follows: Cell proliferation, Cell Titer-Glo, GI50. To be noted: Mus musculus; BaF3-TEL-FLT3, 72 hours. The method, then: as §1, §4, §3
The subject of assay [13] is BaF3-TEL-cKIT. In words: Cell proliferation, Cell Titer-Glo, GI50. To be noted: Mus musculus, 72 hours. As for the experimental part: as §1, §4, §3

By GI50 is commonly meant the concentration at which growth is held to half of that of the control. As to `CC(C)CNC(=O)Nc1ccc(-n2nc(-c3ccc(OCCN4CCOCC4)cc3)c3c(N)ncnc32)cc1` [Compound 4, 1-(4-(4-amino-3-(4-(2-morpholinoethoxy)phenyl)-1H-pyrazolo[3,4-d]pyrimidin-1-yl)phenyl)-3-isobutylurea], the 50% growth inhibitory concentration (GI50) in [1] is over 10 µM; in assay [2], 2800 nM; in assay [3], 2500 nM; in assay [4], over 10 µM; in [5] it was over 10 µM; in assay [6], over 10 µM. The GI50 was over 10000 nM in assay [7]; 1100 nM in [8]; over 10000 nM in assay [9]; over 10000 nM in assay [10]; over 10000 nM in assay [11]; 5400 nM in assay [12]. Moreover, the concentration for 50% growth inhibition (GI50) in [13] was over 10000 nM.
`CN(C)CCNC(=O)Nc1ccc(-n2nc(-c3ccc(OCCN4CCOCC4)cc3)c3c(N)ncnc32)cc1` [Compound 5, 1-(4-(4-amino-3-(4-(2-morpholinoethoxy)phenyl)-1H-pyrazolo[3,4-d]pyrimidin-1-yl)phenyl)-3-(2-(dimethylamino)ethyl)urea]: the GI50 in assay [1] stood at 9.2 µM; in [2], 82 nM; in [3], 130 nM; in assay [4], 3.8 µM; in assay [5] it was 8.3 µM; in [6] it was 3.7 µM. The GI50 in assay [7] worked out at 1300 nM; in [8], 100 nM; in [9] it was 1300 nM; in assay [10], 3300 nM; in [11], 1700 nM; in assay [12], 320 nM. Also, it took 3500 nM to inhibit growth in [13] by half (GI50).
For `CC(C)(C)c1ccc(NC(=O)Nc2ccc(-n3nc(-c4ccc(OCCN5CCOCC5)cc4)c4c(N)ncnc43)cc2)cc1` [Compound 10, 1-(4-(4-amino-3-(4-(2-morpholinoethoxy)phenyl)-1H-pyrazolo[3,4-d]pyrimidin-1-yl)phenyl)-3-(4-(tert-butyl)phenyl)urea], the concentration for 50% growth inhibition (GI50) is 8.5 µM in [1]; 63 nM in assay [2]; 81 nM in assay [3]; over 10 µM in assay [4]; 4.4 µM in assay [5]; over 10 µM in [6]. For the same molecule, the GI50 amounted to 4400 nM in assay [7]; 24 nM in assay [8]; 4400 nM in assay [9]; 1100 nM in assay [10]; 4500 nM in assay [11]; 190 nM in [12]. In assay [13], growth was halved (GI50) at 990 nM.
As to `Nc1ncnc2c1c(-c1ccc(OCCN3CCOCC3)cc1)nn2-c1ccc(NC(=O)Nc2ccc(Cl)c(C(F)(F)F)c2)cc1` [Compound 12, 1-(4-(4-amino-3-(4-(2-morpholinoethoxy)phenyl)-1H-pyrazolo[3,4-d]pyrimidin-1-yl)phenyl)-3-(4-chloro-3-(trifluoromethyl)phenyl)urea], the concentration for 50% growth inhibition (GI50) in [1] is 2.4 µM; in [2] it was 3 nM; in assay [3], 3 nM; in assay [4], 3 µM; in [5], 4 µM; in assay [6] it was 5.4 µM. Moreover, the 50% growth inhibitory concentration (GI50) in [7] came out at 1600 nM; in assay [8], 3 nM; in assay [9] it was 1600 nM; in assay [10], 96 nM; in assay [11], 210 nM; in assay [12] it was 12 nM. In assay [13], this molecule returned a GI50 of 140 nM.
For the molecule `CCN1CCN(Cc2ccc(-c3nn(-c4ccc(NC(=O)Nc5cc(C(C)(C)C)on5)cc4)c4ncnc(N)c34)cc2)CC1` [Compound 20, 1-(4-(4-amino-3-(4-((4-ethylpiperazin-1-yl)methyl)phenyl)-1H-pyrazolo[3,4-d]pyrimidin-1-yl)phenyl)-3-(5-(tert-butyl)isoxazol-3-yl)urea], the GI50 was 1.7 µM in assay [1]; under 0.3 nM in [2]; under 0.3 nM in assay [3]; 2.5 µM in assay [4]; 1.9 µM in assay [5]; 1.6 µM in [6]. In addition, the GI50 in [7] turned out to be 240 nM; in [8], 0.9 nM; in assay [9] it was 240 nM; in assay [10], 9 nM; in [11] it was 8 nM; in [12] it was 2 nM. The GI50 in [13] worked out at 40 nM.
On to `CC(C)(C)c1cc(NC(=O)Nc2ccc(-n3nc(-c4ccc(CN5CCOCC5)cc4)c4c(N)ncnc43)cc2)no1` [Compound 23, 1-(4-(4-amino-3-(4-(morpholinomethyl)phenyl)-1H-pyrazolo[3,4-d]pyrimidin-1-yl)phenyl)-3-(5-(tert-butyl)isoxazol-3-yl)urea], for which the GI50 in assay [1] was 4.1 µM; in [2], under 0.3 nM; in assay [3] it was under 0.3 nM; in assay [4], 5.9 µM; in assay [6] it was 5.4 µM; in [7], 1 nM. Moreover, the concentration for 50% growth inhibition (GI50) is under 0.3 nM in assay [12] and 12 nM in assay [13].
For the molecule `CC(C)(C)c1cc(NC(=O)Nc2ccc(-n3nc(-c4cccnc4)c4c(N)ncnc43)cc2)no1` [Compound 26, 1-(4-(4-amino-3-(pyridin-3-yl)-1H-pyrazolo[3,4-d]pyrimidin-1-yl)phenyl)-3-(5-(tert-butyl)isoxazol-3-yl)urea], the 50% growth inhibitory concentration (GI50) was over 10 µM in assay [1]; under 0.3 nM in assay [2]; 1 nM in assay [3]; over 10 µM in [4]; 7.6 µM in [5]; over 10 µM in assay [6]. Further, the concentration for 50% growth inhibition (GI50) in [7] was determined as 610 nM; in assay [8], 0.7 nM; in assay [9], 610 nM; in [10], 29 nM; in [11], 20 nM; in assay [12], 1 nM. Moreover, growth in assay [13] was halved (GI50) at 38 nM.
For `CC(C)(C)c1cc(NC(=O)Nc2ccc(-n3nc(-c4ccc(NS(C)(=O)=O)cc4)c4c(N)ncnc43)cc2)no1` [Compound 27], the GI50 in assay [1] is over 10 µM; in [2], 0.6 nM; in [3], 1 nM; in [4], over 10 µM; in assay [5], over 10 µM; in assay [6] it was over 10 µM. Also, the GI50 in [7] worked out at 600 nM; in assay [8], 1 nM; in assay [9], 600 nM; in assay [10], 51 nM; in [11], 22 nM; in [12] it was 2 nM. This molecule came in with a GI50 in assay [13] of 120 nM.
On to `CC(C)(C)c1cc(NC(=O)Nc2ccc(-n3nc(-c4ccc(N5CCOCC5)nc4)c4c(N)ncnc43)cc2)no1` [Compound 28, 1-(4-(4-amino-3-(6-morpholinopyridin-3-yl)-1H-pyrazolo[3,4-d]pyrimidin-1-yl)phenyl)-3-(5-(tert-butyl)isoxazol-3-yl)urea], for which the GI50 is over 10 µM in assay [1]; 1 nM in assay [2]; 2 nM in [3]; 6.9 µM in assay [4]; over 10 µM in assay [6]; 3 nM in assay [7]. Also, the results for the concentration for 50% growth inhibition (GI50) in assay [8], in assay [12] and in assay [13] were 2 nM, 4 nM and 41 nM, respectively.
